Measured values as given in US4916141A, “(S)-7-(3-amino-1-pyrrolidinyl)-1-cyclop ropyl-6-fluoro-1,4-dihydro-4-oxo-1,8-naphthyridine-3-carboxylic acid” (Warner-Lambert Company, priority 1989, dated 1990).
≈ marks a conversion by molar mass, not a printed value. Structures can show the parent of a compound that is named as a salt.

Experiments:
[1] = tested on: Enterobacter cloacae MA 2646; test: microtitration dilution MIC; assay type: cell-based; details: MA2646, read-out: minimum inhibitory concentration (MIC)
From the text: (§1) The compounds of the invention display antibacterial activity when tested by the microtitration dilution method as described in Heifetz, et al, […]. Agents and Chemot. 6, 124 (1974), which is incorporated herein by reference. […] Pat. No. 4,649,144.

[2] = tested on: Escherichia coli Vogel; test: microtitration dilution MIC; assay type: cell-based; details: read-out: minimum inhibitory concentration (MIC)
From the text: as §1

[3] = tested on: Klebsiella pneumoniae MGH-2; test: microtitration dilution MIC; assay type: cell-based; details: MGH2, read-out: minimum inhibitory concentration (MIC)
From the text: as §1

[4] = tested on: Proteus rettgeri M 1771; test: microtitration dilution MIC; assay type: cell-based; details: Providencia rettgeri, M1771, read-out: minimum inhibitory concentration (MIC)
From the text: as §1

[5] = tested on: Pseudomonas aeruginosa UI-18; test: microtitration dilution MIC; assay type: cell-based; details: UI18, read-out: minimum inhibitory concentration (MIC)
From the text: as §1

[6] = tested on: Staphylococcus aureus H 228; test: microtitration dilution MIC; assay type: cell-based; details: H228, read-out: minimum inhibitory concentration (MIC)
From the text: as §1

[7] = tested on: Staphylococcus aureus UC-76; test: microtitration dilution MIC; assay type: cell-based; details: UC76, read-out: minimum inhibitory concentration (MIC)
From the text: as §1

[8] = tested on: Staphylococcus faecalis MGH-2; test: microtitration dilution MIC; assay type: cell-based; details: MGH2, read-out: minimum inhibitory concentration (MIC)
From the text: as §1

[9] = tested on: Streptococcus pneumoniae SV-1; test: microtitration dilution MIC; assay type: cell-based; details: SV1, read-out: minimum inhibitory concentration (MIC)
From the text: as §1

[10] = tested on: Streptococcus pyogenes C-203; test: microtitration dilution MIC; assay type: cell-based; details: C203, read-out: minimum inhibitory concentration (MIC)
From the text: as §1

[11] = tested on: Escherichia coli Vogel; test: acute mouse protection test (PD50); assay type: in vivo, mouse (female Charles River CD-1); details: for median protective dose (PD50) P.O.: oral; for median protective dose (PD50) S.C.: subcutaneous
Description: (§2) The in vivo experiments on the bacteria named are expressed in terms of median protective doses (PD50) on the test animals to which the compounds were administered orally and subcutaneously. The measurement of PDso was carried out according to the following procedure:
(§3) Therapeutic activities of the compounds were compared in acute mouse protection tests in which 18-22 g female Charles River CD-1 mice were used. Oral and subcutaneous doses in twofold rising incremental series were administered concurrently with bacterial challenge. Challenges were accomplished by the intraperitoneal injection of an estimated 100 median lethal doses in 0.5 ml volumes of 5% hog gastric mucin or tryptic soy broth. Generally, greater than 90% of the untreated controls died within 48-72 hours. Final survival percentages, obtained after 4-7 days of observation among groups of 8-16 mice, were used to estimate median protective doses (PD50) by the log-probit method.

[12] = tested on: Pseudomonas aeruginosa UI-18; test: acute mouse protection test (PD50); assay type: in vivo, mouse (female Charles River CD-1); details: for median protective dose (PD50) P.O.: oral; for median protective dose (PD50) S.C.: subcutaneous
Description: as §2, §3

[13] = tested on: Staphylococcus faecalis MGH-2; test: acute mouse protection test (PD50); assay type: in vivo, mouse (female Charles River CD-1); details: for median protective dose (PD50) P.O.: oral; for median protective dose (PD50) S.C.: subcutaneous
Description: as §2, §3

[14] = tested on: Streptococcus pneumoniae SV-1; test: acute mouse protection test (PD50); assay type: in vivo, mouse (female Charles River CD-1); details: for median protective dose (PD50) P.O.: oral; for median protective dose (PD50) S.C.: subcutaneous
Description: as §2, §3

[15] = tested on: gram-positive and gram-negative bacteria; test: antibacterial activity in vitro and in vivo (summary statement); details: in vitro as well as in vivo
From the text: The compounds of the invention display antibacterial activity when tested by the microtitration dilution method as described in Heifetz, et al, Antimicr. Agents and Chemot. 6, 124 (1974), which is incorporated herein by reference. By the use of the above reference method, the following minimum inhibitory concentration values (MICs in μg/ml) were obtained for the compound of the present invention, (S)-7-(3-amino-1-pyrrolidinyl)-1-cyclopropyl-6-fluoro-1,4-dihydro-4-oxo-1,8-naphthyridine-3-carboxylic acid, the corresponding (R) isomer and the racemic compound as described in U.S. Pat. No. 4,649,144.
as §2
as §3, with “Final survival percentages, obtained after 4-7 days of observation among groups of 8-16 mice, were used to estimate median protective doses (PD50) by the log-probit method.” left out

Molecule `NC1CCN(c2nc3c(cc2F)c(=O)c(C(=O)O)cn3C2CC2)C1` (racemic) [Racemic, 7-(3-amino-1-pyrrolidinyl)-1-Cyclopropyl-6-fluoro-1,4-dihydro-4-oxo-1,8-naphthyridine-3-carboxylic acid] has an MIC [1] of 0.025 µg/mL (≈ 0.0752 µM), an MIC [2] of 0.013 µg/mL (≈ 0.0391 µM) and an MIC [3] of 0.025 µg/mL (≈ 0.0752 µM). The MIC [4] was 0.1 µg/mL (≈ 0.301 µM), the MIC [5] was 0.05 µg/mL (≈ 0.15 µM) and the MIC [6] was 0.2 µg/mL (≈ 0.602 µM). For the same molecule, the MIC [7] was 0.013 µg/mL (≈ 0.0391 µM), the MIC [8] was 0.2 µg/mL (≈ 0.602 µM) and the MIC [9] was 0.2 µg/mL (≈ 0.602 µM). The MIC [10] was 0.2 µg/mL (≈ 0.602 µM), the “median protective dose (PD50) P.O.” value [11] was 2.0 and the “median protective dose (PD50) S.C.” value [11] was 0.6. For the same molecule, the “median protective dose (PD50) P.O.” value [12] was 7.3, the “median protective dose (PD50) S.C.” value [12] was 3.2 and the “median protective dose (PD50) P.O.” value [13] was 58. For the same molecule, the “median protective dose (PD50) S.C.” value [13] was 33, the “median protective dose (PD50) P.O.” value [14] was 32 and the “median protective dose (PD50) S.C.” value [14] was 14.

`N[C@@H]1CCN(c2nc3c(cc2F)c(=O)c(C(=O)O)cn3C2CC2)C1` ["R" Isomer, (R)-7-(3-Amino-1-pyrrolidinyl)-1-cyclopropyl)-6-fluoro-1,4-dihydro-4-oxo-1,8-naphthyridine-3carboxylic acid hydrochloride] showed an MIC [1] of 0.025 µg/mL, an MIC [2] of 0.013 µg/mL and an MIC [3] of 0.025 µg/mL. For the same molecule, the MIC [4] was 0.05 µg/mL, the MIC [5] was 0.4 µg/mL and the MIC [6] was 0.2 µg/mL. It also gave an MIC [7] of 0.05 µg/mL, an MIC [8] of 0.2 µg/mL and an MIC [9] of 0.1 µg/mL. The MIC [10] was 0.2 µg/mL, the “median protective dose (PD50) P.O.” value [11] was 0.51 and the “median protective dose (PD50) S.C.” value [11] was 0.35. The “median protective dose (PD50) P.O.” value [13] was 45 and the “median protective dose (PD50) S.C.” value [13] was 34.

`N[C@H]1CCN(c2nc3c(cc2F)c(=O)c(C(=O)O)cn3C2CC2)C1` ["S" Isomer, (S)-7-(3-Amino-1-pyrrolidinyl)-1-cyclopropyl-6-fluoro-1,4-dihydro-4-oxo-1,8-naphthyridine-3-carboxylic acid] showed an MIC [1] of 0.013 µg/mL (≈ 0.0391 µM), an MIC [2] of 0.006 µg/mL (≈ 0.0181 µM) and an MIC [3] of 0.013 µg/mL (≈ 0.0391 µM). The MIC [4] was 0.025 µg/mL (≈ 0.0752 µM), the MIC [5] was 0.1 µg/mL (≈ 0.301 µM) and the MIC [6] was 0.05 µg/mL (≈ 0.15 µM). The MIC [7] was 0.013 µg/mL (≈ 0.0391 µM), the MIC [8] was 0.1 µg/mL (≈ 0.301 µM) and the MIC [9] was 0.05 µg/mL (≈ 0.15 µM). The MIC [10] was 0.05 µg/mL (≈ 0.15 µM), the “median protective dose (PD50) P.O.” value [11] was 0.7 and the “median protective dose (PD50) S.C.” value [11] was 0.35. The “median protective dose (PD50) P.O.” value [12] was 3.5, the “median protective dose (PD50) S.C.” value [12] was 2.1 and the “median protective dose (PD50) P.O.” value [13] was 19. For the same molecule, the “median protective dose (PD50) S.C.” value [13] was 14, the “median protective dose (PD50) P.O.” value [14] was 19 and the “median protective dose (PD50) S.C.” value [14] was 9. The “antibacterial activity compared with R isomer and racemic compound” value [15] was “not only better than its opposite R isomer but also better than the racemic compound” and the “antibacterial activity compared with R isomer and racemic compound” value ([15]; listed as S form) was “significantly better activity against both gram-positive and gram-negative bacteria in vitro as well as in vivo”.
